# In ChEMBL document CHEMBL3877248, “Further investigation of inhibitors of MRSA pyruvate kinase: Towards the conception of novel antimicrobial agents” (Eur J Med Chem, 2017):
# Experiments:
# [1] = molecular target: T1, Pyruvate kinase (Staphylococcus aureus (strain MRSA252)) (UniProt Q6GG09); assay: Inhibition of recombinant N-terminal His-tagged methicillin-resistant Staphylococcus aureus MRSA252 pyruvate kinase expressed in Escherichia coli BL21(DE3) at 10 uM using PEP as substrate measured after 5 mins by LDH-coupled assay relative to control; conditions: Staphylococcus aureus subsp. aureus MRSA252
# T1 sequence (whole entry): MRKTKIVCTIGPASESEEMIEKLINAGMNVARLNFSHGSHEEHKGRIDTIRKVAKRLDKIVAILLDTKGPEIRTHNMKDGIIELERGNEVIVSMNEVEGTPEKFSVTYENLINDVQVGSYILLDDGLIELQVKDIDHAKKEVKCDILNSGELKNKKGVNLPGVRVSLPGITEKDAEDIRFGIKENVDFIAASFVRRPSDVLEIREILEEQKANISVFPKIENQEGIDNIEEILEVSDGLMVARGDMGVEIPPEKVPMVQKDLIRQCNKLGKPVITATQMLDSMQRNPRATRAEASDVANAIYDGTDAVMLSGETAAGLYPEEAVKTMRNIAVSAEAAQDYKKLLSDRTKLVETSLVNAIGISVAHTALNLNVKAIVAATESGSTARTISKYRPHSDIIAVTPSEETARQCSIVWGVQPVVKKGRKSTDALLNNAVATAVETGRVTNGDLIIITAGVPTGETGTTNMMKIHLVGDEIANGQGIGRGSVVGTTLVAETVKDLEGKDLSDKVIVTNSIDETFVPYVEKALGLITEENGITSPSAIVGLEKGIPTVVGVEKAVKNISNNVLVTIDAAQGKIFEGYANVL
# [2] = molecular target: T1, Pyruvate kinase (Staphylococcus aureus (strain MRSA252)); assay: Inhibition of recombinant N-terminal His-tagged methicillin-resistant Staphylococcus aureus MRSA252 pyruvate kinase expressed in Escherichia coli BL21(DE3) at 1 uM using PEP as substrate measured after 5 mins by LDH-coupled assay relative to control; conditions: Staphylococcus aureus subsp. aureus MRSA252
# Pyruvate kinase = molecular target: T2, Pyruvate kinase (Staphylococcus aureus (strain MRSA252), UniProt Q6GG09); assay: Inhibition of recombinant N-terminal His-tagged methicillin-resistant Staphylococcus aureus MRSA252 pyruvate kinase expressed in Escherichia coli BL21(DE3) using PEP as substrate measured after 5 mins by LDH-coupled assay; set-up: species or system Staphylococcus aureus subsp. aureus MRSA252
# T2 sequence (Q6GG09 whole entry): T1 sequence (whole entry)
# Staphylococcus aureus [3] = assay: Antibacterial activity against Staphylococcus aureus ATCC 29213 measured after 24 hrs by two-fold microbroth dilution method; assay type: functional
# [4] = molecular target: T1, Pyruvate kinase (Staphylococcus aureus (strain MRSA252)); assay: Inhibition of recombinant N-terminal His-tagged methicillin-resistant Staphylococcus aureus MRSA252 pyruvate kinase expressed in Escherichia coli BL21(DE3) at 0.1 uM using PEP as substrate measured after 5 mins by LDH-coupled assay relative to control; conditions: Staphylococcus aureus subsp. aureus MRSA252
# Staphylococcus aureus [5] = assay: Antibacterial activity against methicillin-resistant Staphylococcus aureus MRSA252 by two-fold microbroth dilution method; assay type: functional
# [6] = Selectivity ratio for inhibition of recombinant N-terminal His-tagged methicillin-resistant Staphylococcus aureus MRSA252 pyruvate kinase over inhibition of human recombinant N-terminal His-tagged pyruvate kinase M1
# [7] = Selectivity ratio for inhibition of recombinant N-terminal His-tagged methicillin-resistant Staphylococcus aureus MRSA252 pyruvate kinase over inhibition of human recombinant N-terminal His-tagged pyruvate kinase M2
# [8] = Selectivity ratio for inhibition of recombinant N-terminal His-tagged methicillin-resistant Staphylococcus aureus MRSA252 pyruvate kinase over inhibition of human recombinant N-terminal His-tagged pyruvate kinase-R
# [9] = Selectivity ratio for inhibition of recombinant N-terminal His-tagged methicillin-resistant Staphylococcus aureus MRSA252 pyruvate kinase over inhibition of human recombinant N-terminal His-tagged pyruvate kinase-L
SMILES,inhibition [2],IC50 (Pyruvate kinase),MIC>98 (Staphylococcus aureus [3]),other results
O=C(/C=C/c1cc2ccccc2[nH]1)c1cccc(Br)c1O,–,–,–,inhibition [1]: 2%
CN(C(=O)c1cc(Br)ccc1O)c1nc2ccc(Br)cc2s1,5%,–,–,–
O=C(Nc1cc(Br)ccc1O)c1cc2ccc(Br)cc2[nH]1,–,12 nM,>64 µg/mL,–
O=C(/C=C/c1cc(Br)ccc1O)c1cc2ccccc2[nH]1,–,355 nM,2 µg/mL,–
Oc1ccc(Br)cc1-c1ccnc(-c2cc3ccc(Br)cc3[nH]2)c1,–,–,>64 µg/mL,inhibition [4]: 41%
O=C(Nc1cc(Br)ccc1O)c1cc2ccccc2[nH]1,28%,–,–,–
Oc1ccc(Br)cc1/C=N/c1nc2ccc(Br)cc2s1,41%,–,64 µg/mL,–
O=C(/C=C/c1cc(Br)ccc1O)c1cc2ccc(Br)cc2[nH]1,–,24 nM,1 µg/mL,–
O=C(/C=C/c1ccc(Br)cc1O)c1cc2ccc(Br)cc2[nH]1,–,14 nM,>64 µg/mL,–
Brc1ccc(-c2c[nH]c3ccc(Br)cc23)cc1,–,–,1 µg/mL,inhibition [4]: 20%
O=C(/C=C/c1cc2ccc(Br)cc2[nH]1)c1ccccc1O,–,343 nM,>64 µg/mL,–
O=C(Nc1nc2ccc(Br)cc2s1)c1ccc(Br)cc1O,–,–,>64 µg/mL,–
O=C(Nc1nc2cc(Br)ccc2s1)c1cc(Br)ccc1O,48%,–,>64 µg/mL,–
O=C1c2ccc(Br)cc2C(=O)N1c1nc2ccc(Br)cc2s1,34%,–,>64 µg/mL,–
O=C(/C=C/c1c[nH]c2ccc(Br)cc12)c1c[nH]c2ccccc12,1%,–,–,–
Oc1ccc(Br)cc1-c1nnc(-c2cc3ccccc3[nH]2)o1,8%,–,>64 µg/mL,–
COc1ccc(Br)cc1/C=C1\CCc2c([nH]c3ccccc23)C1=O,22%,–,–,–
O=C(/C=C/c1cc2ccccc2[nH]1)c1ccc(Br)cc1O,–,553 nM,>64 µg/mL,–
O=C(Nc1ccc(Br)cc1)c1cc2ccccc2[nH]1,41%,–,>64 µg/mL,–
O=C(/C=C/c1cc2ccc(Br)cc2[nH]1)c1cc2ccc(Br)cc2[nH]1,6%,–,–,–

SMILES,inhibition [2],IC50 (Pyruvate kinase),MIC>98 (Staphylococcus aureus [3]),other results
O=C(/C=C/c1cc2ccc(Br)cc2[nH]1)c1cc2cc(Br)ccc2[nH]1,21%,–,>64 µg/mL,–
O=C(/C=C/c1c[nH]c2cc(Br)ccc12)c1cc2ccccc2[nH]1,45%,–,–,–
O=C(Nc1nc2cc(Br)ccc2[nH]1)c1cc2cc(Br)ccc2[nH]1,–,3 nM,>64 µg/mL,–
O=C(/C=C/c1cc2ccc(Br)cc2[nH]1)c1cc(Br)ccc1O,15%,–,>64 µg/mL,–
COc1c(Br)cccc1C(=O)Nc1nc2ccc(Br)cc2s1,22%,–,>64 µg/mL,–
O=C(/C=C/c1c[nH]c2ccc(Br)cc12)c1cc2ccccc2[nH]1,–,1780 nM,>64 µg/mL,–
O=C(Nc1nc2ccc(Br)cc2s1)c1cccc(Br)c1O,–,–,4 µg/mL,–
Brc1ccc(-c2cc3cc(Br)ccc3[nH]2)cc1,21%,–,–,–
"O=C1NC[C@@H](c2c[nH]c3cc(Br)ccc23)N[C@H]1c1c[nH]c2cc(Br)ccc12 [CIS-3,4-DIHYDROHAMACANTHIN B]",–,–,–,MIC (Staphylococcus aureus [5]): 12.5 µg/mL; Selectivity ratio [6]: 166 to 600; Selectivity ratio [7]: 166 to 600; Selectivity ratio [8]: 166 to 600; Selectivity ratio [9]: 166 to 600
O=C(Nc1nc2ccc(Br)cc2s1)c1cccc(Cl)c1O,–,–,4 µg/mL,inhibition [4]: 43%
COc1ccc(Br)cc1-c1nnc(-c2cc3ccccc3[nH]2)o1,19%,–,>64 µg/mL,–
O=C(Nc1nc2cc(Br)ccc2s1)c1cc2cc(Br)ccc2[nH]1,–,8 nM,>64 µg/mL,–
O=C(Nc1nc2cc(Br)ccc2[nH]1)c1cc2ccc(Br)cc2[nH]1,–,2 nM,>64 µg/mL,–
O=C(/C=C/c1cc2ccccc2[nH]1)c1cc(Br)ccc1O,10%,–,–,–
Cn1c(C(=O)Nc2nc3ccc(Br)cc3s2)cc2ccccc21,41%,–,>64 µg/mL,–
Oc1c(Br)cccc1CNc1nc2ccc(Br)cc2s1,17%,–,–,–
Brc1ccc(-c2c[nH]c3cc(Br)ccc23)cc1,–,–,2 µg/mL,–
COc1ccc(Br)cc1C(=O)Nc1nc2ccc(Br)cc2s1,–,8 nM,>64 µg/mL,–
O=C(/C=C/c1c[nH]c2cc(Br)ccc12)c1c[nH]c2ccccc12,28%,–,–,–
COc1ccc(Br)cc1-c1cccc(-c2cc3ccccc3[nH]2)n1,6%,–,>64 µg/mL,–

SMILES,inhibition [2],IC50 (Pyruvate kinase),MIC>98 (Staphylococcus aureus [3]),other results
O=C(Nc1nc2ccc(Br)cc2s1)c1cc(Br)ccc1O,–,–,>64 µg/mL,–
O=C(Nc1nc2ccc(Br)cc2s1)c1cc2cc(Br)ccc2[nH]1,–,23 nM,>64 µg/mL,–
COc1ccc(Br)cc1/C=C/C(=O)c1cc2ccc(Br)cc2[nH]1,–,8 nM,>64 µg/mL,–
O=C(/C=C/c1cc2ccc(Br)cc2[nH]1)c1cccc(Br)c1O,41%,–,>64 µg/mL,–
O=C(Nc1ccc(Br)cc1)c1cc2ccc(Br)cc2[nH]1,–,10 nM,>64 µg/mL,–
O=C(/C=C/c1cc2ccccc2[nH]1)c1cc2ccc(Br)cc2[nH]1,–,5 nM,>64 µg/mL,–
O=C(Nc1nc2cc(Br)ccc2s1)c1cc2ccccc2[nH]1,–,–,>64 µg/mL,–
O=C(Nc1nc2ccc(Br)cc2s1)c1ccccc1O,65%,–,>64 µg/mL,–
O=C(/C=C/c1cc2ccc(Br)cc2[nH]1)c1ccc(Br)cc1O,–,132 nM,>64 µg/mL,–
O=C(c1ncc(-c2c[nH]c3cc(Br)ccc23)[nH]1)c1c[nH]c2ccccc12 [BROMODEOXYTOPSENTIN],–,60 nM,–,–
O=C(Nc1nc2ccccc2s1)c1cc(Br)ccc1O,13%,–,>64 µg/mL,–
O=C(Nc1ccc(Br)cc1)c1cc2ccc(Br)cc2s1,–,–,>64 µg/mL,inhibition [4]: 43%
O=C(/C=C/c1cccc(Br)c1O)c1cc2ccc(Br)cc2[nH]1,–,403 nM,>64 µg/mL,–
O=C(Nc1cccc(Br)c1O)c1cc2ccc(Br)cc2[nH]1,–,–,>64 µg/mL,–
O=C(Nc1nc2cc(Br)ccc2[nH]1)c1cc(Br)ccc1O,–,11 nM,4 µg/mL,–
O=C(/C=C/c1cc2ccc(Br)cc2[nH]1)c1cc2ccccc2[nH]1,38%,–,>64 µg/mL,–
O=C(Nc1nc2ccc(Br)cc2s1)c1cc(Br)cc(Br)c1O,–,4 nM,1 µg/mL,–
O=C(Nc1nc2ccc(Br)cc2s1)c1cc2ccccc2[nH]1,–,–,>64 µg/mL,–
